Assay results from PubChem BioAssay AID330 (DTP/NCI, 2004).
“And” between values parts separate entries of the source, which are not always exact repeats. Equal entries are not always repeated. Inconclusive results and toxic doses are left out.

Tested on: P388 leukemia ip, CD2F1 mice, survival T/C
Assay: NCI In Vivo Anticancer Drug Screen. Data for tumor model P388 Leukemia (intraperitoneal) in CD2F1 (CDF1) mice
Details: endpoint: median survival time, higher = longer survival
Procedure, shortened: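 Mice carrying the transplanted tumor received test compound or vehicle. Survival was recorded in each group, and the value is the treated-group measurement divided by that of the vehicle-treated control group.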

[1] = dose: 60.0 mg/kg/injection, schedule: Q01DX005 (ip), vehicle: saline with Tween-80
[2] = dose: 120.0 mg/kg/injection, schedule: Q01DX005 (ip), vehicle: saline with Tween-80
[3] = dose: 240.0 mg/kg/injection, schedule: Q01DX005 (ip), vehicle: saline with Tween-80
[4] = dose: 25.0 mg/kg/injection, schedule: Q01DX005 (ip), vehicle: Klucel (hydroxypropylcellulose) (HPC)
[5] = dose: 50.0 mg/kg/injection, schedule: Q01DX009 (ip), vehicle: saline with Tween-80
[6] = dose: 100.0 mg/kg/injection, schedule: Q01DX009 (ip), vehicle: saline with Tween-80
[7] = dose: 200.0 mg/kg/injection, schedule: Q01DX009 (ip), vehicle: saline with Tween-80
[8] = dose: 50.0 mg/kg/injection, schedule: Q01DX005 (ip), vehicle: saline with Tween-80
[9] = dose: 100.0 mg/kg/injection, schedule: Q01DX005 (ip), vehicle: saline with Tween-80
[10] = dose: 200.0 mg/kg/injection, schedule: Q01DX005 (ip), vehicle: saline with Tween-80
[11] = dose: 50.0 mg/kg/injection, schedule: Q01DX005 (ip), vehicle: Klucel (hydroxypropylcellulose) (HPC)
[12] = dose: 100.0 mg/kg/injection, schedule: Q01DX005 (ip), vehicle: Klucel (hydroxypropylcellulose) (HPC)
[13] = dose: 200.0 mg/kg/injection, schedule: Q01DX005 (ip), vehicle: Klucel (hydroxypropylcellulose) (HPC)
[14] = dose: 100.0 mg/kg/injection, schedule: Q04DX003 (ip), vehicle: saline with Tween-80

Compound: CC(C)(C)c1ccc(CN2CCN(C(c3ccccc3)c3ccc(Cl)cc3)CC2)cc1 (centres undefined)
- T/C (dose: 2.0 mg/kg/injection, schedule: Q01DX009 (ip), vehicle: saline with Tween-80): 89 % of control
- T/C (dose: 4.0 mg/kg/injection, schedule: Q01DX009 (ip), vehicle: saline with Tween-80): 95 % of control
- T/C (dose: 8.0 mg/kg/injection, schedule: Q01DX009 (ip), vehicle: saline with Tween-80): 89 % of control
- T/C (dose: 16.0 mg/kg/injection, schedule: Q01DX009 (ip), vehicle: saline with Tween-80): 94 % of control
- T/C (dose: 32.0 mg/kg/injection, schedule: Q01DX009 (ip), vehicle: saline with Tween-80): 94 % of control
- T/C (dose: 64.0 mg/kg/injection, schedule: Q01DX009 (ip), vehicle: saline with Tween-80): 94 % of control

Compound: CSc1nnc(CCC(=O)Nc2c(C)cccc2C(C)(C)C)o1
- T/C [1]: 104 % of control
- T/C [2]: 99 % of control
- T/C [3]: 91 % of control

Compound: CC(C)(C)N1CC1C#N (centres undefined)
- T/C (dose: 3.13 mg/kg/injection, schedule: Q01DX009 (ip), vehicle: saline): 111 % of control
- T/C (dose: 6.25 mg/kg/injection, schedule: Q01DX009 (ip), vehicle: saline): 104 % of control
- T/C (dose: 12.5 mg/kg/injection, schedule: Q01DX009 (ip), vehicle: saline): 101 % of control

Compound: OCC(O)/C=C/c1ccccc1 (centres undefined)
- T/C (dose: 100.0 mg/kg/injection, schedule: Q01DX001 (ip), vehicle: Klucel (hydroxypropylcellulose) (HPC)): 95 % of control
- T/C (dose: 100.0 mg/kg/injection, schedule: Q04DX002 (ip), vehicle: saline with Tween-80): 96 % of control
- T/C (dose: 200.0 mg/kg/injection, schedule: Q01DX001 (ip), vehicle: Klucel (hydroxypropylcellulose) (HPC)): 103 % of control
- T/C (dose: 200.0 mg/kg/injection, schedule: Q04DX002 (ip), vehicle: saline with Tween-80): 90 % of control
- T/C (dose: 400.0 mg/kg/injection, schedule: Q01DX001 (ip), vehicle: Klucel (hydroxypropylcellulose) (HPC)): 108 % of control
- T/C (dose: 400.0 mg/kg/injection, schedule: Q04DX002 (ip), vehicle: saline with Tween-80): 99 % of control

Compound: O=C1c2ccc3ccccc3c2CCC1C1([n+]2ccccc2)CCc2c(ccc3ccccc23)C1=O (centres undefined)
- T/C (dose: 6.25 mg/kg/injection, schedule: Q01DX005 (ip), vehicle: Klucel (hydroxypropylcellulose) (HPC)): 99 % of control and 109 % of control
- T/C (dose: 12.5 mg/kg/injection, schedule: Q01DX005 (ip), vehicle: Klucel (hydroxypropylcellulose) (HPC)): 100 % of control and 103 % of control and 98 % of control
- T/C [4]: 99 % of control and 100 % of control and 112 % of control

Compound: O=C1CSC(=S)N1C1CC1
- T/C [5]: 95 % of control
- T/C [6]: 86 % of control
- T/C [7]: 87 % of control

Compound: Cc1cc(NS(=O)(=O)c2ccc(N=c3c4ccccc4n(C)c4ccccc34)cc2)no1
- T/C [8]: 103 % of control
- T/C [9]: 102 % of control
- T/C [10]: 103 % of control

Compound: C/C(C=O)=C\c1ccc2c(c1)OCO2
- T/C [11]: 104 % of control
- T/C [12]: 97 % of control
- T/C [13]: 106 % of control

Compound: COc1ccc(C(=O)CC(=O)CCC(=O)Nc2ccc(Cl)cc2Cl)cc1
- T/C [1]: 103 % of control
- T/C [2]: 101 % of control
- T/C [3]: 92 % of control

Compound: Nc1nc2ncn(COC(CO)CO)c2c(=O)[nH]1
- T/C [1]: 100 % of control
- T/C [2]: 98 % of control
- T/C [3]: 100 % of control

Compound: COC(CN(Cc1cccs1)S(=O)(=O)c1ccc(C)cc1)OC
- T/C [11]: 94 % of control
- T/C [12]: 94 % of control
- T/C [13]: 99 % of control

Compound: C/C=C(\C)C(=O)OC1C(C)=C2C(C1OC(=O)CCCCC)C(C)(OC(C)=O)CC(OC(=O)CCC)C1(O)C2OC(=O)C1(C)O (centres undefined)
- T/C (dose: 0.25 mg/kg/injection, schedule: Q01DX005 (ip), vehicle: Klucel (hydroxypropylcellulose) (HPC)): 105 % of control
- T/C (dose: 0.5 mg/kg/injection, schedule: Q01DX005 (ip), vehicle: Klucel (hydroxypropylcellulose) (HPC)): 99 % of control and 123 % of control
- T/C (dose: 1.0 mg/kg/injection, schedule: Q01DX005 (ip), vehicle: Klucel (hydroxypropylcellulose) (HPC)): 105 % of control
- T/C (dose: 2.0 mg/kg/injection, schedule: Q01DX005 (ip), vehicle: Klucel (hydroxypropylcellulose) (HPC)): 106 % of control

Compound: NC(=O)N/N=C1/CCC(OCc2ccccc2)CC1CC(=O)O (centres undefined)
- T/C [8]: 102 % of control
- T/C [9]: 105 % of control
- T/C [10]: 96 % of control

Compound: c1ccc(OP(Oc2ccccc2)(c2ccccc2)(c2ccccc2)c2ccccc2)cc1
- T/C (dose: 50.0 mg/kg/injection, schedule: Q01DX009 (ip), vehicle: Klucel (hydroxypropylcellulose) (HPC)): 97 % of control
- T/C (dose: 100.0 mg/kg/injection, schedule: Q01DX009 (ip), vehicle: Klucel (hydroxypropylcellulose) (HPC)): 99 % of control
- T/C (dose: 200.0 mg/kg/injection, schedule: Q01DX009 (ip), vehicle: Klucel (hydroxypropylcellulose) (HPC)): 111 % of control

Compound: O=C(O)CCCCCCCCCO
- T/C (dose: 25.0 mg/kg/injection, schedule: Q01DX009 (ip), vehicle: saline): 109 % of control
- T/C (dose: 50.0 mg/kg/injection, schedule: Q01DX009 (ip), vehicle: saline): 115 % of control
- T/C (dose: 100.0 mg/kg/injection, schedule: Q01DX009 (ip), vehicle: saline): 100 % of control
- T/C (dose: 200.0 mg/kg/injection, schedule: Q01DX009 (ip), vehicle: saline): 100 % of control

Compound: CCCCNC(=O)C1C2C=CC(O2)C1C(=O)O (centres undefined)
- T/C [11]: 100 % of control
- T/C [12]: 93 % of control
- T/C [13]: 89 % of control

Compound: Cc1ccc(C)c(Nc2ccccc2[N+](=O)[O-])c1
- T/C [5]: 103 % of control
- T/C [6]: 108 % of control
- T/C [7]: 100 % of control
- T/C (dose: 400.0 mg/kg/injection, schedule: Q01DX009 (ip), vehicle: saline with Tween-80): 112 % of control

Compound: CC/C(=N/NS(=O)(=O)c1ccc(C)cc1)C(=O)O
- T/C [4]: 90 % of control
- T/C [11]: 92 % of control
- T/C [12]: 92 % of control
- T/C [13]: 91 % of control
- T/C (dose: 400.0 mg/kg/injection, schedule: Q01DX005 (ip), vehicle: Klucel (hydroxypropylcellulose) (HPC)): 88 % of control

Compound: CCC(C)(C)c1cccc(C(=O)O)c1O
- T/C (dose: 25.0 mg/kg/injection, schedule: Q04DX003 (ip), vehicle: saline with Tween-80): 100 % of control
- T/C (dose: 50.0 mg/kg/injection, schedule: Q04DX003 (ip), vehicle: saline with Tween-80): 118 % of control
- T/C [14]: 106 % of control and 112 % of control

Compound: COC(=O)c1ccc(COc2ccc([N+](=O)[O-])cc2Cl)cc1
- T/C [8]: 100 % of control
- T/C [9]: 104 % of control
- T/C [14]: 105 % of control
- T/C [10]: 104 % of control
- T/C (dose: 200.0 mg/kg/injection, schedule: Q04DX003 (ip), vehicle: saline with Tween-80): 105 % of control
- T/C (dose: 400.0 mg/kg/injection, schedule: Q04DX003 (ip), vehicle: saline with Tween-80): 103 % of control

Compound: CC(CN1CC(=O)NC(=O)C1)N1CC(=O)NC(=O)C1 (centres undefined)
- T/C (dose: 6.48 mg/kg/injection, schedule: Q04DX002 (ip), vehicle: saline): 117 % of control
- T/C (dose: 50.0 mg/kg/injection, schedule: Q04DX002 (ip), vehicle: Klucel (hydroxypropylcellulose) (HPC)): 123 % of control
- T/C (dose: 64.8 mg/kg/injection, schedule: Q04DX003 (ip), vehicle: saline): 119 % of control
- T/C (dose: 77.8 mg/kg/injection, schedule: Q04DX002 (ip), vehicle: saline with Tween-80): 118 % of control
- T/C (dose: 180.0 mg/kg/injection, schedule: Q04DX002 (ip), vehicle: saline): 156 % of control
- T/C (dose: 180.0 mg/kg/injection, schedule: Q04DX003 (ip), vehicle: saline): 161 % of control
- T/C (dose: 200.0 mg/kg/injection, schedule: Q04DX002 (ip), vehicle: Klucel (hydroxypropylcellulose) (HPC)): 153 % of control and 163 % of control
- T/C (dose: 216.0 mg/kg/injection, schedule: Q04DX002 (ip), vehicle: saline with Tween-80): 152 % of control
- T/C (dose: 300.0 mg/kg/injection, schedule: Q04DX002 (ip), vehicle: saline): 174 % of control
- T/C (dose: 300.0 mg/kg/injection, schedule: Q04DX003 (ip), vehicle: saline): 214 % of control and 217 % of control
- T/C (dose: 360.0 mg/kg/injection, schedule: Q04DX002 (ip), vehicle: saline with Tween-80): 195 % of control
- T/C (dose: 400.0 mg/kg/injection, schedule: Q04DX002 (ip), vehicle: Klucel (hydroxypropylcellulose) (HPC)): 223 % of control and 94 % of control
- T/C (dose: 500.0 mg/kg/injection, schedule: Q04DX002 (ip), vehicle: saline): 100 % of control
- T/C (dose: 500.0 mg/kg/injection, schedule: Q04DX003 (ip), vehicle: saline): 118 % of control and 219 % of control
- T/C (dose: 600.0 mg/kg/injection, schedule: Q04DX002 (ip), vehicle: saline with Tween-80): 213 % of control
